From patent US8017792B2, “1-thio-D-glucitol derivatives” (Taisho Pharmaceutical Co., Ltd., priority 2005, dated 2011)

What was measured:
[1] = test system: rat kidney brush border membrane vesicles (BBMV); assay: Glucose uptake inhibition in rat kidney brush border membrane vesicles (Test Example 1); type: biochemical; conditions: D-[6-3H]glucose 0.1 mM, 37° C., five seconds, read-out: IC50 (concentration at which glucose uptake was inhibited by 50%)
Procedure: After 50 μL of a suspension (protein concentration: 4 mg/mL) of rat kidney brush border membrane vesicles (brush border membrane […]: BBMV) prepared following the method described in a document (Anal. Biochem., Vol. 201, Clause 301, 1984) was preincubated at 37° C. for two minutes, 150 μL of a reaction mixture which was a mixture of a test compound dissolved in DMSO (DMSO final concentration: 1%), 100 mM mannitol, 100 mM NaSCN or KSCN, 10 mM HEPES/Tris pH 7.4, D-glucose (final concentration: 0.1 mM) and 1 μCi of D-[6-^3H] glucose (Amersham) was added to this. After performing a reaction at 37° C. for five seconds, 1 mL of an ice cooled reaction terminating solution (150 mM NaCl, 10 mM HEPES/Tris pH 7.4, 0.3 mM phlorizin) was added to the reaction mixture to terminate the reaction, and BBMV was immediately separated by rapid filtration using a membrane filter (HAWP02500 having a pore size of 0.45 μm, Millipore). The membrane filter was washed three times with 4.5 mL of the ice cooled reaction terminating solution. After the membrane was dried sufficiently, radioactivity was measured with a liquid scintillation counter (Beckman) to quantify the amount of glucose taken in BBMV on the membrane filter.

Human SGLT1 = biological target: T1, Human SGLT1 (Homo sapiens, UniProt P13866); assay: Sodium-dependent sugar uptake inhibition test in CHO-K1 cells stably expressing human SGLT1 (Test Example 2); type: cell-based; conditions: [14C]methyl-α-D-glucopyranoside 0.1 mM, 37° C., 30 minutes
T1 construct: expressed in transfected cells; host or cells: CHO-K1
T1 sequence (P13866 1-664): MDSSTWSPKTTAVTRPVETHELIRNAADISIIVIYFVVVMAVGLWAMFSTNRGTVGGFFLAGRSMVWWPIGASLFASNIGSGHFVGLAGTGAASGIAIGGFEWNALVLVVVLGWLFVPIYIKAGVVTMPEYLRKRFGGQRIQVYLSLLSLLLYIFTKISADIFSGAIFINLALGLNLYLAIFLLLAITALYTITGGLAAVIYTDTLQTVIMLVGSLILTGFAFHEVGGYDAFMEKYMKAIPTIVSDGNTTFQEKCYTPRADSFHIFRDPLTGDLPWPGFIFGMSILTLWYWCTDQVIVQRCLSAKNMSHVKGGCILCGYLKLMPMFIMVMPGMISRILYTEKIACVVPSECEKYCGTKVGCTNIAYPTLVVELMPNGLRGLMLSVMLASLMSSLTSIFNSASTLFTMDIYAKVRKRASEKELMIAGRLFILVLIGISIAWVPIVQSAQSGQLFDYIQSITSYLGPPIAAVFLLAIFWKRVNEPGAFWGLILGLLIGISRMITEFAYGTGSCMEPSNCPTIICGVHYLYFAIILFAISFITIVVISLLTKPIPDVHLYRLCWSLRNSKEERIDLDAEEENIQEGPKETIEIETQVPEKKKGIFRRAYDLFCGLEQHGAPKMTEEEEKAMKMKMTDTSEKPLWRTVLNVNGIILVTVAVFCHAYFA
Procedure: (§1) Human SGLT1 sequence (NM_000343) was reverse-transcripted from human small intestinal mRNA, then amplified, and then introduced into pCMV-tag5A from Stratagene Corporation. Human SGLT2 sequence (NM_003041) was prepared from human nephric mRNA as with the above method, and then introduced into pcDNA3.1+hygro from Invitrogen Corporation. Each cloned sequence was confirmed to be identical with the reported sequence.
(§2) CHO-K1 cells were transfected with the human SGLT1 and human SGLT2 expression vectors using Lipofectamine 2000 (Invitrogen Corporation). SGLT expression cells were cultured in the presence of geneticin (SGLT1) or hygromycin B (SGLT2) of the concentration of 500 μg/mL to select resistant strains. Cells were obtained using sugar uptake specific activity as an index in the following system.
(§3) Cells stably expressing human SGLT1 and human SGLT2 were used in the sodium-dependent sugar uptake activity inhibition test. Cells were incubated in 1 mL of a pretreatment buffer solution (140 mM choline chloride, 2 mM KCl, 1 mM CaCl2, 1 mM MgCl2, 10 mM HEPES/5 mM Tris, pH 7.4) for 20 minutes. The pretreatment buffer solution was removed and 200 μL of an uptake buffer containing test compounds (methyl-α-D-glucopyranoside containing [^14C]methyl-α-D-glucopyranoside (0.1 mM for SGLT1 inhibition, 1 mM for SGLT2 inhibition), 140 mM NaCl, 2 mM KCl, 1 mM CaCl2, 1 mM MgCl2, 10 mM HEPES/5 mM Tris, pH 7.4) were added, and uptake reaction was performed at 37° C. for 30 minutes (SGLT1) or for one hour (SGLT2). After the reaction, cells were washed with 1 mL of a washing buffer (10 mM methyl-α-D-glucopyranoside, 140 mM choline chloride, 2 mM KCl, 1 mM CaCl2, 1 mM MgCl2, 10 mM HEPES/5 mM Tris, pH 7.4) twice and dissolved in 400 μL of 0.2 M NaOH solution. After Aquazole 2 (Perkin Elmer Corporation) was added and mixed well, radioactivity was measured with a liquid scintillation counter (Beckman Coulter Corporation). A buffer for uptake which contained no test compound was prepared as a control group. Another buffer solution for uptake containing choline chloride in place of NaCl was also prepared for basic uptake.

Human SGLT2 = biological target: T2, Human SGLT2 (Homo sapiens, UniProt P31639); assay: Sodium-dependent sugar uptake inhibition test in CHO-K1 cells stably expressing human SGLT2 (Test Example 2); type: cell-based; conditions: for IC50: CHO-K1 cells, [14C]methyl-α-D-glucopyranoside 1 mM, 37° C., one hour; for SGLT1/SGLT2: ratio of IC50 human SGLT1 to IC50 human SGLT2
T2 construct: expressed in transfected cells; host or cells: CHO-K1
T2 sequence (P31639 1-672): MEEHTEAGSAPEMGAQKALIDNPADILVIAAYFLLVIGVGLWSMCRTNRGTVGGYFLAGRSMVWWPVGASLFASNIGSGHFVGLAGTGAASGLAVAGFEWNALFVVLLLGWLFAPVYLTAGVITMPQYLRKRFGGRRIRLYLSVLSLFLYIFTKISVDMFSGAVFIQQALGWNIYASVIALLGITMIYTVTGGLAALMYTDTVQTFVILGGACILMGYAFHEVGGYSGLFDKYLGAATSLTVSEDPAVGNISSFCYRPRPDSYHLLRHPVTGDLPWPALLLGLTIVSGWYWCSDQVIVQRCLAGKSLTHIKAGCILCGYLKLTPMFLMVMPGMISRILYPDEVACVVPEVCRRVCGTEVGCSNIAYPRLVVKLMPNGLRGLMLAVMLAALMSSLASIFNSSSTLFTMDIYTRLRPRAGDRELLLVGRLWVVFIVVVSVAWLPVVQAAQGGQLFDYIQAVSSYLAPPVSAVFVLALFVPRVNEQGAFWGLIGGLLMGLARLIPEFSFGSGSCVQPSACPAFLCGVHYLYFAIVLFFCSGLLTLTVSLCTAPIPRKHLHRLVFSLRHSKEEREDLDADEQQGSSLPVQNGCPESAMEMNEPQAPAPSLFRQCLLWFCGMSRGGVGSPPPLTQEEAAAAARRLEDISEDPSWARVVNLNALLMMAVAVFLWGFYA
Procedure: as §1, §2, §3

IC50 [1] [nM]	IC50 (Human SGLT1) [nM]	IC50 (Human SGLT2) [nM]	SGLT1/SGLT2 (Human SGLT2)	melting point [°C]	SMILES
1600	27400	2830	9.7	–	CCOc1ccc(Cc2cccc([C@@H]3S[C@H](CO)[C@@H](O)[C@H](O)[C@H]3O)c2)cc1 [Compound 75, (1S)-1,5-Anhydro-1-[3-(4-ethoxybenzyl)phenyl]-1-thio-D-glucitol]
320	–	80	14.6	–	CCOc1ccc(Cc2cc([C@@H]3S[C@H](CO)[C@@H](O)[C@H](O)[C@H]3O)ccc2Cl)cc1 [Compound 76, (1S)-1,5-Anhydro-1-[4-chloro-3-(4-ethoxybenzyl)phenyl]-1-thio-D-glucitol]
220	2700	370	7.2	–	CCOc1ccc(Cc2ccc(O)c([C@@H]3S[C@H](CO)[C@@H](O)[C@H](O)[C@H]3O)c2)cc1 [Compound 79, (1S)-1,5-Anhydro-1-[3-(4-ethoxybenzyl)-6-hydroxyphenyl]-1-thio-D-glucitol]
350	700	1120	0.6	91 to 105	COc1ccc([C@@H]2S[C@H](CO)[C@@H](O)[C@H](O)[C@H]2O)cc1Cc1cc2ccccc2s1 [Compound 127, (1S)-1,5-Anhydro-1-[3-[(1-benzothien-2-yl)methyl]-4-methoxyphenyl]-1-thio-D-glucitol]
790	600	140	4.4	105 to 115	OC[C@H]1S[C@@H](c2ccc(Cl)c(Cc3cc4ccccc4s3)c2)[C@H](O)[C@@H](O)[C@@H]1O [Compound 128, (1S)-1,5-Anhydro-1-[3-[(1-benzothien-2-yl)methyl]-4-chlorophenyl]-1-thio-D-glucitol]
